Several values for one entry are separate records, joined by “and”; a condition that tells them apart may be missing. Identical values can stand only once. Inconclusive results and toxic doses are left out.
Test system: L1210 leukemia ip in BDF1 mice, survival T/C
Assay: NCI In Vivo Anticancer Drug Screen. Data for tumor model L1210 Leukemia (intraperitoneal) in B6D2F1 (BDF1) mice
Conditions: endpoint: mean survival time, higher = longer survival
Outline: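 Antitumor effect is assessed in tumor-bearing animals. Survival in the compound arm is compared with a vehicle-dosed control arm and expressed as their quotient.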

[1] = dose: 100.0 mg/kg/injection, schedule: Q04DX002 (ip), vehicle: Klucel (hydroxypropylcellulose) (HPC)
[2] = dose: 200.0 mg/kg/injection, schedule: Q04DX002 (ip), vehicle: Klucel (hydroxypropylcellulose) (HPC)
[3] = dose: 400.0 mg/kg/injection, schedule: Q04DX002 (ip), vehicle: Klucel (hydroxypropylcellulose) (HPC)
[4] = dose: 100.0 mg/kg/injection, schedule: Q04DX003 (ip), vehicle: saline
[5] = dose: 100.0 mg/kg/injection, schedule: Q01DX009 (ip), vehicle: Klucel (hydroxypropylcellulose) (HPC)
[6] = dose: 200.0 mg/kg/injection, schedule: Q01DX009 (ip), vehicle: Klucel (hydroxypropylcellulose) (HPC)
[7] = dose: 400.0 mg/kg/injection, schedule: Q01DX009 (ip), vehicle: Klucel (hydroxypropylcellulose) (HPC)
[8] = dose: 100.0 mg/kg/injection, schedule: Q01DX009 (ip), vehicle: saline with Tween-80
[9] = dose: 100.0 mg/kg/injection, schedule: Q04DX003 (ip), vehicle: saline with Tween-80
[10] = dose: 100.0 mg/kg/injection, schedule: Q01DX001 (ip), vehicle: Klucel (hydroxypropylcellulose) (HPC)
[11] = dose: 200.0 mg/kg/injection, schedule: Q01DX001 (ip), vehicle: Klucel (hydroxypropylcellulose) (HPC)
[12] = dose: 400.0 mg/kg/injection, schedule: Q01DX001 (ip), vehicle: Klucel (hydroxypropylcellulose) (HPC)
[13] = dose: 100.0 mg/kg/injection, schedule: Q04DX003 (ip), vehicle: Klucel (hydroxypropylcellulose) (HPC)
[14] = dose: 200.0 mg/kg/injection, schedule: Q04DX003 (ip), vehicle: Klucel (hydroxypropylcellulose) (HPC)

For `CC(=O)OCC1OC(=O)C(C)N(C)C(=O)CN(C)C(=O)C2C(=O)CC(C)N2C(=O)C(C(C)C)NC(=O)C1NC(=O)c1c2nc3c(C(=O)NC4C(=O)NC(C(C)C)C(=O)N5C(C)CC(OC(C)=O)C5C(=O)N(C)CC(=O)N(C)C(C(C)C)C(=O)OC4C)ccc(C)c3oc-2c(C)c(=O)c1N` (stereo not given), the T/C (dose: 0.05 mg/kg/injection, schedule: Q01DX009 (ip), vehicle: saline with Tween-80) was 94 % of control, the T/C (dose: 0.1 mg/kg/injection, schedule: Q01DX009 (ip), vehicle: saline with Tween-80) was 102 % of control and the T/C (dose: 0.15 mg/kg/injection, schedule: Q04DX003 (ip), vehicle: saline with Tween-80) was 95 % of control. The T/C (dose: 0.2 mg/kg/injection, schedule: Q01DX009 (ip), vehicle: saline with Tween-80) was 112 % of control, the T/C (dose: 0.3 mg/kg/injection, schedule: Q04DX003 (ip), vehicle: saline with Tween-80) was 100 % of control and the T/C (dose: 0.4 mg/kg/injection, schedule: Q01DX001 (ip), vehicle: saline with Tween-80) was 102 % of control. For the same compound, the T/C (dose: 0.4 mg/kg/injection, schedule: Q01DX009 (ip), vehicle: saline with Tween-80) was 118 % of control, the T/C (dose: 0.6 mg/kg/injection, schedule: Q04DX003 (ip), vehicle: saline with Tween-80) was 111 % of control and the T/C (dose: 0.8 mg/kg/injection, schedule: Q01DX001 (ip), vehicle: saline with Tween-80) was 118 % of control. The T/C (dose: 1.2 mg/kg/injection, schedule: Q04DX003 (ip), vehicle: saline with Tween-80) was 118 % of control, the T/C (dose: 1.6 mg/kg/injection, schedule: Q01DX001 (ip), vehicle: saline with Tween-80) was 112 % of control and the T/C (dose: 2.4 mg/kg/injection, schedule: Q04DX003 (ip), vehicle: saline with Tween-80) was 119 % of control. For the same compound, the T/C (dose: 3.2 mg/kg/injection, schedule: Q01DX001 (ip), vehicle: saline with Tween-80) was 119 % of control and the T/C (dose: 6.4 mg/kg/injection, schedule: Q01DX001 (ip), vehicle: saline with Tween-80) was 102 % of control.
With `O=C(C[n+]1ccc2ccccc2c1)c1ccccc1` the T/C (dose: 12.5 mg/kg/injection, schedule: Q01DX009 (ip), vehicle: saline) was 98 % of control, the T/C (dose: 25.0 mg/kg/injection, schedule: Q01DX009 (ip), vehicle: saline) was 104 % of control and the T/C (dose: 50.0 mg/kg/injection, schedule: Q01DX009 (ip), vehicle: saline) was 101 % of control. The T/C (dose: 50.0 mg/kg/injection, schedule: Q04DX003 (ip), vehicle: saline) was 97 % of control.
`CS(=O)(=O)OCCN(CCOS(C)(=O)=O)c1cccc(N)c1` was tested, and the T/C (dose: 0.22 mg/kg/injection, schedule: Q01DX001 (ip), vehicle: saline) was 105 % of control, the T/C (dose: 0.33 mg/kg/injection, schedule: Q01DX001 (ip), vehicle: saline) was 105 % of control and the T/C (dose: 0.5 mg/kg/injection, schedule: Q01DX001 (ip), vehicle: saline) was 97 % of control and 110 % of control. The T/C (dose: 0.75 mg/kg/injection, schedule: Q01DX001 (ip), vehicle: saline) was 106 % of control, the T/C (dose: 1.0 mg/kg/injection, schedule: Q01DX001 (ip), vehicle: saline) was 109 % of control and the T/C (dose: 2.0 mg/kg/injection, schedule: Q01DX001 (ip), vehicle: saline) was 117 % of control. For the same compound, the T/C (dose: 3.5 mg/kg/injection, schedule: Q01DX001 (ip), vehicle: saline) was 116 % of control, the T/C (dose: 5.3 mg/kg/injection, schedule: Q01DX001 (ip), vehicle: saline) was 91 % of control and the T/C (dose: 8.0 mg/kg/injection, schedule: Q01DX001 (ip), vehicle: saline) was 209 % of control and 86 % of control.
For `Cc1ccc(C)c(S(N)(=O)=O)c1`, the T/C [1] was 106 % of control, the T/C [2] was 100 % of control and the T/C [3] was 103 % of control.
`CCCC[N+](C)(C)CCOC(=O)C1C2CC3OC(=O)C1C3C2` (stereo not given) was tested, and the T/C [4] was 95 % of control.
`CC(C)N(C(=O)c1ccccc1Cl)c1ccccc1` was tested, and the T/C [5] was 92 % of control, the T/C [6] was 103 % of control and the T/C [7] was 103 % of control.
For `C=CCOc1ccnc(N)n1`, the T/C [8] was 90 % of control, the T/C [9] was 105 % of control and the T/C (dose: 200.0 mg/kg/injection, schedule: Q01DX009 (ip), vehicle: saline with Tween-80) was 95 % of control. For the same compound, the T/C (dose: 200.0 mg/kg/injection, schedule: Q04DX003 (ip), vehicle: saline with Tween-80) was 100 % of control, the T/C (dose: 400.0 mg/kg/injection, schedule: Q01DX009 (ip), vehicle: saline with Tween-80) was 100 % of control and the T/C (dose: 400.0 mg/kg/injection, schedule: Q04DX003 (ip), vehicle: saline with Tween-80) was 102 % of control.
`O=[N+]([O-])c1ccc(N/N=C/c2cccnc2)cc1` was tested, and the T/C [10] was 96 % of control, the T/C [5] was 92 % of control and the T/C [11] was 95 % of control. For the same compound, the T/C [6] was 90 % of control, the T/C [12] was 88 % of control and the T/C [7] was 101 % of control.
In the case of `Cc1cn(CCCCOC(=O)c2ccc([N+](=O)[O-])cc2)c(=O)[nH]c1=O`, the T/C [10] is reported as 95 % of control, the T/C [11] is reported as 100 % of control and the T/C [12] is reported as 87 % of control.
In the case of `O=S(=O)(O)SCCNC1CCC(NCCSS(=O)(=O)O)CC1` (stereo not given), the T/C [4] is reported as 105 % of control, the T/C (dose: 200.0 mg/kg/injection, schedule: Q04DX003 (ip), vehicle: saline) is reported as 116 % of control and the T/C (dose: 400.0 mg/kg/injection, schedule: Q04DX003 (ip), vehicle: saline) is reported as 114 % of control.
`CN(C)C(=S)SCSC(=S)N(C)C` was tested, and the T/C (dose: 25.0 mg/kg/injection, schedule: Q04DX003 (ip), vehicle: saline with Tween-80) was 100 % of control, the T/C (dose: 50.0 mg/kg/injection, schedule: Q04DX003 (ip), vehicle: saline with Tween-80) was 91 % of control and the T/C [1] was 97 % of control. For the same compound, the T/C [9] was 91 % of control, the T/C [2] was 93 % of control and the T/C [3] was 93 % of control.
For `O=c1cc(-c2ccc(Cl)cc2)oc(-c2ccc(Cl)cc2)c1`, the T/C (dose: 50.0 mg/kg/injection, schedule: Q01DX009 (ip), vehicle: Klucel (hydroxypropylcellulose) (HPC)) was 94 % of control, the T/C [5] was 93 % of control and the T/C [13] was 89 % of control. For the same compound, the T/C [14] was 92 % of control.
In the case of `O=S1(=O)N=C(Cl)c2ccccc21`, the T/C (dose: 50.0 mg/kg/injection, schedule: Q04DX003 (ip), vehicle: Klucel (hydroxypropylcellulose) (HPC)) is reported as 105 % of control, the T/C [13] is reported as 108 % of control and the T/C [14] is reported as 97 % of control.
With `CC(C)OC(=O)Oc1c(Cl)c(Cl)c(Cl)c(Cl)c1Cl` the T/C [5] was 95 % of control, the T/C [1] was 105 % of control and the T/C [6] was 98 % of control. The T/C [2] was 94 % of control and the T/C [3] was 98 % of control.
For `COc1cccc(NC(=O)Nc2ccccc2C(F)(F)F)c1`, the T/C (dose: 6.25 mg/kg/injection, schedule: Q01DX009 (ip), vehicle: saline with Tween-80) was 92 % of control, the T/C (dose: 12.5 mg/kg/injection, schedule: Q01DX009 (ip), vehicle: saline with Tween-80) was 92 % of control and the T/C (dose: 25.0 mg/kg/injection, schedule: Q01DX009 (ip), vehicle: saline with Tween-80) was 90 % of control. For the same compound, the T/C (dose: 50.0 mg/kg/injection, schedule: Q01DX009 (ip), vehicle: saline with Tween-80) was 90 % of control and the T/C [8] was 94 % of control.
With `COc1ccc(C2CCC(=O)CC2(O)C(=O)O)cc1` (stereo not given) the T/C [5] was 91 % of control, the T/C [13] was 98 % of control and the T/C [6] was 88 % of control. The T/C [14] was 102 % of control, the T/C [7] was 98 % of control and the T/C (dose: 400.0 mg/kg/injection, schedule: Q04DX003 (ip), vehicle: Klucel (hydroxypropylcellulose) (HPC)) was 100 % of control.
With `CCN(C)C(=O)Nc1cccc([N+](=O)[O-])c1` the T/C [1] was 101 % of control, the T/C [2] was 93 % of control and the T/C [3] was 93 % of control.
With `CCOC(=O)C(COS(C)(=O)=O)NS(=O)(=O)c1ccc(C)cc1` (stereo not given) the T/C [10] was 98 % of control, the T/C [11] was 104 % of control and the T/C [12] was 95 % of control.
With `c1ccc(C2=NC(c3ccccc3)C(c3ccccc3)N2)cc1` (stereo not given) the T/C [10] was 97 % of control, the T/C [11] was 94 % of control and the T/C [12] was 89 % of control.

Source: PubChem BioAssay AID248 (DTP/NCI, 2004)
